According to ChEMBL document CHEMBL6083273, “Targeting Periplakin of Novel Benzenesulfonamides as Highly Selective Agonists for the Treatment of Vitiligo” (2024):
Active and inactive are the calls of the source. The rule behind the calls is not given here.

Tests used:
Danio rerio [1] = species on record: Danio rerio; assay: Induction of melanogenesis in zebrafish treated for 24 hrs by absorbance based assay (reference value: 98.2 to 100.3 %); type: functional
Danio rerio [2] = species on record: Danio rerio; assay: Effect on tryptophan metabolism in zebrafish embryo assessed as 3-HAA metabolite level at 10 uM by LC/MS analysis; type: functional
Danio rerio [3] = species on record: Danio rerio; assay: Effect on tryptophan metabolism in zebrafish embryo assessed as 3-HK metabolite level at 10 uM by LC/MS analysis; type: functional
Danio rerio [4] = species on record: Danio rerio; assay: Effect on tryptophan metabolism in zebrafish embryo assessed as 5-HIAA metabolite level at 10 uM by LC/MS analysis; type: functional
Danio rerio [5] = species on record: Danio rerio; assay: Effect on tryptophan metabolism in zebrafish embryo assessed as 5-HTOL metabolite level at 10 uM by LC/MS analysis; type: functional
Danio rerio [6] = species on record: Danio rerio; assay: Effect on tryptophan metabolism in zebrafish embryo assessed as 5-HTP metabolite level at 10 uM by LC/MS analysis; type: functional
Danio rerio [7] = species on record: Danio rerio; assay: Effect on tryptophan metabolism in zebrafish embryo assessed as AA metabolite level at 10 uM by LC/MS analysis; type: functional
Danio rerio [8] = species on record: Danio rerio; assay: Effect on tryptophan metabolism in zebrafish embryo assessed as IA metabolite level at 10 uM by LC/MS analysis; type: functional
Danio rerio [9] = species on record: Danio rerio; assay: Effect on tryptophan metabolism in zebrafish embryo assessed as IAA metabolite level at 10 uM by LC/MS analysis; type: functional
Danio rerio [10] = species on record: Danio rerio; assay: Effect on tryptophan metabolism in zebrafish embryo assessed as IAN metabolite level at 10 uM by LC/MS analysis; type: functional
Danio rerio [11] = species on record: Danio rerio; assay: Effect on tryptophan metabolism in zebrafish embryo assessed as ICA metabolite level at 10 uM by LC/MS analysis; type: functional
Danio rerio [12] = species on record: Danio rerio; assay: Effect on tryptophan metabolism in zebrafish embryo assessed as LE metabolite level at 10 uM by LC/MS analysis; type: functional
Danio rerio [13] = species on record: Danio rerio; assay: Effect on tryptophan metabolism in zebrafish embryo assessed as IGA metabolite level at 10 uM by LC/MS analysis; type: functional
Danio rerio [14] = species on record: Danio rerio; assay: Effect on tryptophan metabolism in zebrafish embryo assessed as ILA metabolite level at 10 uM by LC/MS analysis; type: functional
Danio rerio [15] = species on record: Danio rerio; assay: Effect on tryptophan metabolism in zebrafish embryo assessed as indican metabolite level at 10 uM by LC/MS analysis; type: functional
Danio rerio [16] = species on record: Danio rerio; assay: Effect on tryptophan metabolism in zebrafish embryo assessed as indole metabolite level at 10 uM by LC/MS analysis; type: functional
Danio rerio [17] = species on record: Danio rerio; assay: Effect on tryptophan metabolism in zebrafish embryo assessed as IPA metabolite level at 10 uM by LC/MS analysis; type: functional
Danio rerio [18] = species on record: Danio rerio; assay: Effect on tryptophan metabolism in zebrafish embryo assessed as NA metabolite level at 10 uM by LC/MS analysis; type: functional
Danio rerio [19] = species on record: Danio rerio; assay: Effect on tryptophan metabolism in zebrafish embryo assessed as NAS metabolite level at 10 uM by LC/MS analysis; type: functional
Danio rerio [20] = species on record: Danio rerio; assay: Effect on tryptophan metabolism in zebrafish embryo assessed as skatole metabolite level at 10 uM by LC/MS analysis; type: functional
Danio rerio [21] = species on record: Danio rerio; assay: Effect on tryptophan metabolism in zebrafish embryo assessed as Trp metabolite level at 10 uM by LC/MS analysis; type: functional
Danio rerio [22] = species on record: Danio rerio; assay: Effect on tryptophan metabolism in zebrafish embryo assessed as Xa metabolite level at 10 uM by LC/MS analysis; type: functional
Danio rerio [23] = species on record: Danio rerio; assay: Induction of melanogenesis in zebrafish treated for 24 hrs by absorbance based assay; type: functional, organism-based
Danio rerio [24] = species on record: Danio rerio; assay: Induction of melanogenesis in zebrafish at 40 uM treated for 24 hrs by absorbance based assay relative to control; type: functional
Danio rerio [25] = species on record: Danio rerio; assay: Induction of melanogenesis in zebrafish at 10 uM treated for 24 hrs by absorbance based assay; type: functional, organism-based
Mus musculus [26] = assay: Induction of melanogenesis in hydroquinone-induced vitiligo C57BL/6J mouse assessed as darker hair color administered topically for 20 days; type: functional, organism-based; conditions: route top, time 20.0 day
Mus musculus [27] = assay: Induction of melanogenesis in hydroquinone-induced vitiligo C57BL/6J mouse at 1.5 % administered topically for 20 days by Masson-Fontana staining based analysis; type: functional, organism-based; conditions: route top, time 20.0 day
Danio rerio [28] = species on record: Danio rerio; assay: Induction of melanogenesis in wild-type zebrafish at 10 uM treated for 24 hrs by absorbance based assay; type: functional, organism-based
Danio rerio [29] = species on record: Danio rerio; assay: Induction of melanogenesis in zebrafish harboring PPL-/- at 10 uM treated for 24 hrs by absorbance based assay; type: functional, organism-based
[30] = Induction of melanogenesis in co-culture of HEK293 cells and mouse B16-F10 cells at 10 uM incubated for 48 hrs by Masson-Fontana staining based analysis relative to control; type: functional
[31] = Induction of melanogenesis in co-culture of HEK293 cells transfected with PPL (unknown origin) and mouse B16-F10 cells at 10 uM incubated for 48 hrs by Masson-Fontana staining based analysis relative to control; type: functional
Danio rerio [32] = species on record: Danio rerio; assay: Binding affinity to PPL in zebrafish incubated for 10 mins by LiP-SMap analysis; conditions: filed as agonist
Danio rerio [33] = species on record: Danio rerio; assay: Binding affinity to PPL in zebrafish at 10 uM by pull down assay; conditions: filed as agonist
Mus musculus [34] = assay: In vivo agonist activity at PPL in skin of hydroquinone-induced vitiligo C57BL/6J mouse at 1.5 % administered topically for 20 days by immunofluorescence analysis; type: functional, organism-based; conditions: time 20.0 day
Danio rerio [35] = species on record: Danio rerio; assay: Effect on purine metabolism in zebrafish embryo at 10 uM by KEGG pathway-enrichment analysis; type: functional, organism-based
Danio rerio [36] = species on record: Danio rerio; assay: Effect on histidine metabolism in zebrafish embryo at 10 uM by KEGG pathway-enrichment analysis; type: functional, organism-based
Danio rerio [37] = species on record: Danio rerio; assay: Effect on pyrimidine metabolism in zebrafish embryo at 10 uM by KEGG pathway-enrichment analysis; type: functional, organism-based
Danio rerio [38] = assay: In vivo agonist activity at PPL in zebrafish assessed as increase in cAMP content at 10 uM by ELISA; type: functional, organism-based
Danio rerio [39] = assay: In vivo agonist activity at PPL in zebrafish assessed as increase in mitfa mRNA level at 10 uM by ISH analysis; type: functional, organism-based
Danio rerio [40] = assay: In vivo agonist activity at PPL in zebrafish assessed as increase in mitfa mRNA level at 10 uM by qRT-PCR analysis; type: functional, organism-based
Danio rerio [41] = assay: In vivo agonist activity at PPL in zebrafish assessed as increase in Tyr mRNA level at 10 uM by ISH analysis; type: functional, organism-based
Danio rerio [42] = assay: In vivo agonist activity at PPL in zebrafish assessed as increase in Dct mRNA level at 10 uM by ISH analysis; type: functional, organism-based
Danio rerio [43] = species on record: Danio rerio; assay: Effect on cAMP content in zebrafish harboring PPL-/- at 10 uM by ELISA; type: functional, organism-based
Danio rerio [44] = species on record: Danio rerio; assay: Effect on mitfa mRMA level in zebrafish harboring PPL-/- at 10 uM by qRT-PCR analysis; type: functional
Danio rerio [45] = species on record: Danio rerio; assay: Effect on tryptophan metabolism in zebrafish embryo assessed as KYNA metabolite level at 10 uM by LC/MS analysis; type: functional

With Cc1cc(-c2ccc([C@H](C)Nc3nccc(NS(=O)(=O)c4ccc([N+](=O)[O-])cc4)n3)cc2)ccc1F the Activity (Danio rerio [1]) was 108.21%, the Activity (Danio rerio [2]) was 3.54 nmol/kg and the Activity (Danio rerio [3]) was 93.63 nmol/kg. It also gave an Activity (Danio rerio [4]) of 55.63 nmol/kg, an Activity (Danio rerio [5]) of 0.03 nmol/kg and an Activity (Danio rerio [6]) of 54.62 nmol/kg. It also gave an Activity (Danio rerio [7]) of 14.25 nmol/kg, an Activity (Danio rerio [8]) of 22 nmol/kg and an Activity (Danio rerio [9]) of 3.45 nmol/kg. It also gave an Activity (Danio rerio [10]) of 17.69 nmol/kg, an Activity (Danio rerio [11]) of 38.27 nmol/kg and an Activity (Danio rerio [12]) of 32.11 nmol/kg. It also gave an Activity (Danio rerio [13]) of 2.84 nmol/kg, an Activity (Danio rerio [14]) of 105.98 nmol/kg and an Activity (Danio rerio [15]) of 0.95 nmol/kg. For the same molecule, the Activity (Danio rerio [16]) was 788.07 nmol/kg, the Activity (Danio rerio [17]) was 19.38 nmol/kg and the Activity (Danio rerio [18]) was 2107.11 nmol/kg. It also gave an Activity (Danio rerio [19]) of 0.06 nmol/kg, an Activity (Danio rerio [20]) of 582.83 nmol/kg and an Activity (Danio rerio [21]) of 206300.5 nmol/kg. It also gave an Activity (Danio rerio [22]) of 430.99 nmol/kg.

In the case of Cc1cc(-c2ccc([C@H](C)Nc3nccc(NS(=O)(=O)c4cccc([N+](=O)[O-])c4)n3)cc2)ccc1F, the Activity (Danio rerio [23]) is reported as “Dose-dependent-effect”, the Emax at 40 µM (Danio rerio [24]) is reported as 197% and the Activity (Danio rerio [25]) is reported as “Active”. The Activity (Mus musculus [26]) was “Dose-dependent-effect”, the Activity (Mus musculus [27]) was “Active; Calcipotriene And Ruxolitinib Was Considerably Less Than The Compound At Concentration Of 1.5%” and the Activity (Danio rerio [28]) was “Active”. For the same molecule, the Activity (Danio rerio [29]) was “inactive”, the Activity [30] was 107.32% and the Activity [31] was 137.24%. The Activity (Danio rerio [32]) was “Active”, the Activity (Danio rerio [33]) was “Active” and the Activity (Danio rerio [1]) was 171.43%. For the same molecule, the Activity (Mus musculus [34]) was “Active”, the Activity (Danio rerio [35]) was “Active” and the Activity (Danio rerio [36]) was “Active”. For the same molecule, the Activity (Danio rerio [37]) was “Active”, the Activity (Danio rerio [38]) was “Active” and the Activity (Danio rerio [39]) was “Active”. For the same molecule, the Activity (Danio rerio [40]) was “Active”, the Activity (Danio rerio [41]) was “Active” and the Activity (Danio rerio [42]) was “Active”. The Activity (Danio rerio [43]) was “No effect”, the Activity (Danio rerio [44]) was “No effect” and the Activity (Danio rerio [2]) was 3.14 nmol/kg. For the same molecule, the Activity (Danio rerio [3]) was 81.53 nmol/kg, the Activity (Danio rerio [4]) was 76.93 nmol/kg and the Activity (Danio rerio [5]) was 0.03 nmol/kg. For the same molecule, the Activity (Danio rerio [6]) was 41.08 nmol/kg, the Activity (Danio rerio [7]) was 15.09 nmol/kg and the Activity (Danio rerio [8]) was 21.8 nmol/kg. The Activity (Danio rerio [9]) was 4.89 nmol/kg, the Activity (Danio rerio [10]) was 16.28 nmol/kg and the Activity (Danio rerio [11]) was 24.76 nmol/kg. For the same molecule, the Activity (Danio rerio [12]) was 41.42 nmol/kg, the Activity (Danio rerio [13]) was 1.2 nmol/kg and the Activity (Danio rerio [14]) was 109.9 nmol/kg. The Activity (Danio rerio [16]) was 635.89 nmol/kg, the Activity (Danio rerio [17]) was 20.08 nmol/kg and the Activity (Danio rerio [45]) was 8.23 nmol/kg. For the same molecule, the Activity (Danio rerio [18]) was 2295.89 nmol/kg, the Activity (Danio rerio [19]) was 0.07 nmol/kg and the Activity (Danio rerio [20]) was 527.99 nmol/kg. It also gave an Activity (Danio rerio [21]) of 203749.8 nmol/kg and an Activity (Danio rerio [22]) of 399.41 nmol/kg.
